Source: patent publication US10196436B2, “Inhibitors of the fibroblast growth factor receptor” (BLUEPRINT MEDICINES CORPORATION, priority 2012, dated 2019)
“Also recorded” adds a separate entry of the source.

Key:
[1] = tested on: Hep3B xenograft tumors; assay: Hep3B liver cancer cell subcutaneous xenograft model, tumor growth inhibition; format: in vivo, Mus Musculus
Experimental: […] female nude mice (Mus Musculus) age 6 to 8 weeks were used. Tumor cell culture and inoculation: Hep3B cells were cultured with EMEM medium (Invitrogen, USA) supplemented with 10% FBS (Gibco, Australia). The cells were harvested in 90% confluence, and the viability was no less than 90%. Mice were implanted subcutaneously (s.c.) with 200 μL of 10×10^6 Hep3B cells in 50% Matrigel in the right flank at the beginning of the study.
Animal grouping and dosing schedule: Ten days after cell implantation, when tumors reached an average volume of 199 mm^3, 45 mice were selected based on tumor volume and randomly assigned to 5 treatment groups (n=9). The day of randomization was denoted as Do and the treatment was started from then on.
(§1) Tumor volume and body weight measurements: Tumor size was measured twice per week in two dimensions using a caliper, and the volume was expressed in mm^3 using the formula: V=0.5 a×b^2 where a and b were the long and short diameters of the tumor, respectively. Body weight was measured at least twice weekly.

[2] = tested on: Hep3B cells; assay: Induction of apoptosis, Caspase-Glo3/7 assay in Hep3B cells; format: cell-based; conditions: 6 hours
Experimental: Hep3B cells were seeded at 20 k/well in 96-well white plates in 200 ul of DMEM/5% FBS overnight. The next day compound was added at a final DMSO concentration of 0.1% and incubated for 6 hours. Caspase activity was measured according to manufacture instruction (Caspase-Glo3/7 Assay (Promega)). Briefly, 100 ul of Caspase-Glo3/7 reagent was added to each well and incubated for 1 hour in the dark. Luminescence was measured using EnVision.

[3] = tested on: MDA-MB-453 cells, which harbor an activating FGFR4 mutation; assay: Cellular potency: phosphorylation of Erk in MDA-MB-453 cells (immunoblot); conditions: Homo sapiens, MDA-MB-453, 1 h, read-out: Potency (pErk IC50)
Experimental: Dose response in MDA-MB-453 cells, which harbor an activating FGFR4 mutation, was measured as follows. Briefly, MDA-MB-453 cells were seeded at 2.5×10^6 cells/6 well, and starved overnight. Compounds were added at varying concentrations (3000, 1000, 300, 100, and 30 nM) for 1 hour. Samples were collected and lysed for immunoblot analysis. The phosphorylation of Erk was measured and the average pErk value of three replicates was plotted with three parameter dose-response (inhibition) curve fit using Prism GraphPad software, which was used to determine the IC50 values.

[4] = format: in vivo; conditions: Hep3B-bearing nude mice, entire study period, current dosages and dosing schedule
Experimental: as §1
Body weight change (%) of Hep3B-bearing nude mice: FIG. 8 is a line graph depicting the body weight change (%) during the entire study period.

[5] = tested on: panel of kinase assays; assay: Kinase panel selectivity score from percent of DMSO control; conditions: kinases with POC less than 10 at 3 μM divided by total distinct kinases tested
[6] = molecular target: wild type FGFR-4 (Homo sapiens (Human), UniProt P22455); assay: FGFR-4 wild type assay at Km (Caliper electrophoretic mobility shift); format: biochemical; conditions: for IC50: 400 uM ATP, 90 minutes, 25 C, read-out: FGFR4 IC50; for Ratio FGFR1/FGFR4: [IC50 for FGFR1]/[IC50 for FGFR4]
Sequence of wild type FGFR-4 (P22455 22-802): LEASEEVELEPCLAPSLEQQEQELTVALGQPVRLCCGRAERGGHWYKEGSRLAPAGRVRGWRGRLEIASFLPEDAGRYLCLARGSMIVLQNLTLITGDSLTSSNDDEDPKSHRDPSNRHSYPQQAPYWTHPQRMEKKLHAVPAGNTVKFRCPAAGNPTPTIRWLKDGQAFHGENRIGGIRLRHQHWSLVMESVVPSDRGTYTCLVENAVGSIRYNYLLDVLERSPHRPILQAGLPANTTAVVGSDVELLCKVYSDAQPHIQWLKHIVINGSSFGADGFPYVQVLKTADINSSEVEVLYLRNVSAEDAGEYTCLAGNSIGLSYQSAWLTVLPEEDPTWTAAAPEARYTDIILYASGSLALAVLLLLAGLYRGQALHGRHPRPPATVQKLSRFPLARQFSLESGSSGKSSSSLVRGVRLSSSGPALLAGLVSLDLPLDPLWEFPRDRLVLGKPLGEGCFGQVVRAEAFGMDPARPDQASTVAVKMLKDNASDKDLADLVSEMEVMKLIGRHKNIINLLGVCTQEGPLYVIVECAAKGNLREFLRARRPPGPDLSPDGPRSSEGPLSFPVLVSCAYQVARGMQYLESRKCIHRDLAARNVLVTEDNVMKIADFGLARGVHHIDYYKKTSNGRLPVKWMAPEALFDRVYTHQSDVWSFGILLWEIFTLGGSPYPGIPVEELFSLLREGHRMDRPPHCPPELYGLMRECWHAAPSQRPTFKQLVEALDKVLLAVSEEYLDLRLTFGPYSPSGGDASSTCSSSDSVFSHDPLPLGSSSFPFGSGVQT
Experimental: In order to assess the activity of chemical compounds against the relevant kinase of interest, the Caliper LifeSciences electrophoretic mobility shift technology platform is utilized. Fluorescently labeled substrate peptide is incubated in the presence dosed levels of compounds, a set concentration of kinase and of ATP, so that a reflective proportion of the peptide is phosphorylated. At the end of the reaction, the mix of phosphorylated (product) and non-phosphorylated (substrate) peptides are passed through the microfluidic system of the Caliper LabChip® EZ Reader II, under an applied potential difference. The presence of the phosphate group on the product peptide provides a difference in mass and charge between the product peptide and the substrate peptide, resulting in a separation of the substrate and product pools in the sample. As the pools pass the LEDS within the instrument, these pools are detected and resolved as separate peaks. The ratio between these peaks therefore reflects the activity of the chemical matter at that concentration in that well, under those conditions.
The reaction was stopped by the addition of 70 ul of Stop buffer (100 mM HEPES pH 7.5, 0.015% Brij 35, 35 mM EDTA and 0.2% of Coating Reagent 3 (Caliper Lifesciences)). The plate was then read on a Caliper LabChip® EZ Reader II (protocol settings: −1.9 psi, upstream voltage −700, downstream voltage −3000, post sample sip 35 s).

[7] = molecular target: FGFR-4 (Homo sapiens (Human), UniProt P22455); assay: Crystal structure of compound bound to FGFR-4; format: binding
Sequence of FGFR-4 (P22455 22-802): as above

[8] = molecular target: GST-tagged recombinant wild type FGFR-4 (Homo sapiens (Human), UniProt P22455); assay: Covalency: mass spectrometry of protein-inhibitor complex; format: binding; conditions: 300 uM compound, 75 uM FGFR-4, 3 hours room temperature then 13 hours 4° C.
Sequence of GST-tagged recombinant wild type FGFR-4 (P22455 460-802): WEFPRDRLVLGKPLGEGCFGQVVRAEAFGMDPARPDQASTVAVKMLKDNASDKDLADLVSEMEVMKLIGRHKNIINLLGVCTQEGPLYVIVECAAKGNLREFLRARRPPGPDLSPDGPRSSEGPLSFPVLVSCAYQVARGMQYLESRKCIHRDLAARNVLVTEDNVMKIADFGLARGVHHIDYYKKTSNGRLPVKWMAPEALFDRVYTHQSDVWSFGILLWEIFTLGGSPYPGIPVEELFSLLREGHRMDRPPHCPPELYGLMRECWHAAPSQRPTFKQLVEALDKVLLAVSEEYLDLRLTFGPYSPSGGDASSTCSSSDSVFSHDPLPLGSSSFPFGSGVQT
Experimental: The protein-inhibitor complex was then desalted using Pierce detergent removal columns (Thermo Pierce). The unmodified protein and protein-inhibitor complex were analyzed by electron spray mass spectrometry to determine their respective molecular weights.

Row | selectivity score [S(10) @3 μM] [5] | IC50 [6] [nM] | Ratio FGFR1/FGFR4 [6] | Compound | IC50 [3] [nM] | other results
1 |  |  |  | COc1cc(CCc2cc(NC(=O)c3ccc(N4CC(C)NC(C)C4)cc3)n[nH]2)cc(OC)c1 (centres unmarked) [BGJ398, reference compound] |  | tumor volume vs vehicle group ([1]; 20 mg/kg PO QD, entire study, nude mice): significant difference in tumor volume between BGJ398 (20 mg/kg PO QD) and vehicle groups was not observed; induction of apoptosis (caspase activity) [2]: induction of apoptosis, although at a higher concentration
2 |  |  |  | C=CC(=O)Nc1cccc(C)c1Nc1ncc2cc(-c3c(Cl)c(OC)cc(OC)c3Cl)ccc2n1 [COMPOUND 25, N-(2-((6-(2,6-dichloro-3,5-dimethoxyphenyl)quinazolin-2-yl)amino)-3-methylphenyl)acrylamide] | 1 to 10 | tumor volume vs vehicle group ([1]; 100 mg/kg PO BID, Day 4 to Day 19, nude mice): Statistically significant reduction of tumor volumes; also recorded: regressed; tumor volume vs vehicle group ([1]; 300 mg/kg PO BID, Day 4 to Day 19, nude mice): Statistically significant reduction of tumor volumes; also recorded: almost disappeared; body weight change / tolerability [4]: well tolerated; induction of apoptosis (caspase activity) [2]: potent induction of apoptosis
3 | ≤ 0.030 | < 10 | A (the ratio is >500) | C=CC(=O)Nc1cccc(C)c1Nc1ncc2cc(-c3c(Cl)c(OC)cc(OC)c3Cl)cc(OC)c2n1 [COMPOUND 41] | 1 to 10 | 
4 |  | < 10 | C (the ratio is ≥100 and <200) | C=CC(=O)N(CCCCN(CC)CC)c1ncc2cc(-c3cc(OC)cc(OC)c3)c(NC(=O)NC(C)(C)C)nc2n1 [COMPOUND 52, N-(7-(3-(tert-butyl)ureido)-6-(3,5-dimethoxyphenyl)pyrido[2,3-d]pyrimidin-2-yl)-N-(4-(diethylamino)butyl)acrylamide] |  | residue bound in crystal structure [7]: binds to the cysteine at residue 552 of FGFR-4; mass difference between protein-inhibitor complex and unmodified protein [8]: 575.1252 daltons
5 | ≤ 0.030 | < 10 | A (the ratio is >500) | C=CC(=O)N(CCCCN(CC)CC)c1ncc2cc(-c3c(Cl)c(OC)cc(OC)c3Cl)c(NC(=O)NC(C)(C)C)nc2n1 [COMPOUND 55, N-(7-(3-(tert-butyl)ureido)-6-(2,6-dichloro-3,5-dimethoxyphenyl)pyrido[2,3-d]pyrimidin-2-yl)-N-(4-(diethylamino)butyl) acrylamide] |  | 
6 |  |  |  | CNC(=O)c1cc(Oc2ccc(NC(=O)Nc3ccc(Cl)c(C(F)(F)F)c3)cc2)ccn1 [Sorafenib, reference compound] |  | tumor volume vs vehicle group ([1]; 30 mg/kg PO QD, Day 4 to Day 19, nude mice): Statistically significant reduction of tumor volumes

Row | Compound | selectivity score [S(10) @3 μM] [5] | IC50 [6] [nM] | Ratio FGFR1/FGFR4 [6] | IC50 [3] [nM] | other results
7 | C=CC(=O)Nc1cccc(F)c1Nc1ncc2cc(-c3c(Cl)c(OC)cc(OC)c3Cl)ccc2n1 [COMPOUND 27] | ≤ 0.030 | < 10 | C (the ratio is ≥100 and <200) | 1 to 10 | 
